Measurements reported in patent US10517889B2, “Modulators of SMAD7 expression” (Ionis Pharmaceuticals, Inc., priority 2017, dated 2019).
Strand notation (5' to 3'): a small letter for the sugar, then the base; units joined by * are phosphorothioate-linked, units joined directly phosphodiester-linked; [ ] holds rarer units or linkages, { } end groups; capitals alone tell only the bases. e = 2'-O-(2-methoxyethyl) (MOE); [5mC] = 5-methylcytosine; d = 2'-deoxy (DNA)

Tests used:
[1] = test system: human SMAD7 mRNA; assay: Dose-dependent inhibition of human SMAD7 mRNA expression in Hep3B cells (Example 3, Study 1 and 2); type: cell-based; settings: electroporation; for % inhibition of SMAD7 mRNA expression: approximately 16 hours; for IC50: Study 1 (312.5-20000 nM)
Outline: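 Hep3B cells, 20,000 per well, electroporated with antisense oligonucleotide at 0.31, 1.25, 5.00 or 20.00 μM (first series) or 0.74, 2.22, 6.67 or 20.00 μM (second series). After ~16 h, SMAD7 mRNA measured by RT-qPCR (RTS5062), normalised to RIBOGREEN total RNA. Percent inhibition vs untreated cells; IC50 derived.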

[2] = test system: human SMAD7 mRNA; assay: Antisense inhibition of human SMAD7 mRNA expression in Hep3B cells by 5-10-5 MOE gapmers, single concentration, electroporation, RT-PCR (Example 1, Study 1 and 2); type: cell-based; settings: for % Inhibition of SMAD7 mRNA: electroporation with 15,000 nM antisense oligonucleotide (Study 2); for % Inhibition: Study 2, electroporation with 15,000 nM antisense oligonucleotide
Outline: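 Readout is percent SMAD7 mRNA inhibition versus untreated cells, measured by qRT-PCR (RTS5062) and corrected for total RNA by RIBOGREEN. Oligonucleotide, 5,000 nM or 15,000 nM, was delivered by electroporation into Hep3B cells at 20,000 per well. RNA was collected about 24 h later.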

[3] = 312.5 nM, Study 1, relative to untreated control cells
[4] = 5-10-5 MOE gapmers targeting SEQ ID NO: 1 and 2
[5] = electroporation, 15,000 nM antisense oligonucleotide (Study 2), 5-10-5 MOE gapmers targeting SEQ ID NO: 1 and 2
[6] = electroporation, 5,000 nM, approximately 24 hours, relative to untreated control cells, gapmers targeting SEQ ID NO: 1 and 2
[7] = electroporation, 15,000 nM, approximately 24 hours, relative to untreated control cells, gapmers targeting SEQ ID NO: 1 and 2

Row | Substance | % inhibition of SMAD7 mRNA expression [1, 3] | % inhibition of SMAD7 mRNA expression ([1]; 1250.0 nM, Study 1) | % inhibition of SMAD7 mRNA expression ([1]; 5000.0 nM, Study 1) | % inhibition of SMAD7 mRNA expression ([1]; 20000.0 nM, Study 1) | IC50 [1] | % inhibition of SMAD7 mRNA expression [2, 5] | % Inhibition [2, 4] | further results
1 | 278478 (antisense eA*e[5mC]*eA*eT*eG*dA*d[5mC]*d[5mC]*dT*d[5mC]*d[5mC]*dG*d[5mC]*dA*d[5mC]*eA*e[5mC]*e[5mC]*eA*eT) [compound 278478] | 0% | 9% | 19% | 22% | > 20 µM | 18% |  | % Inhibition of SMAD7 mRNA [2, 4]: 54%
2 | 483663 (antisense e[5mC]*eA*eG*e[5mC]*e[5mC]*dT*d[5mC]*dT*dT*dG*dA*d[5mC]*dT*dT*d[5mC]*e[5mC]*eG*eA*eG*eG) [compound 483663] | 0% | 0% | 14% | 27% | > 20 µM | 41% | 56% | % Inhibition of SMAD7 mRNA [2, 4]: 35%; % inhibition of SMAD7 mRNA expression [2, 6]: 47%; % inhibition of SMAD7 mRNA expression [2, 7]: 49%
3 | 771345 (antisense eA*e[5mC]*eA*eG*e[5mC]*dA*dT*d[5mC]*dT*dG*dG*dA*d[5mC]*dA*dG*eT*e[5mC]*eA*eG*eT) [compound 771345] | 6% | 19% | 49% | 69% | 6 µM |  |  | % inhibition of SMAD7 mRNA expression ([2]; electroporation, 15,000 nM, approximately 24 hours, gapmers targeting SEQ ID NO: 3 and 4): 54%
4 | 771386 (antisense e[5mC]*eT*eG*eG*eA*d[5mC]*dA*dG*dT*d[5mC]*dT*dG*d[5mC]*dT*dG*eT*eG*eG*eA*eT) [compound 771386] | 9% | 3% | 25% | 60% | 19 µM |  | 57% | 
5 | 771387 (antisense eA*eG*e[5mC]*eA*eT*d[5mC]*dT*dG*dG*dA*d[5mC]*dA*dG*dT*d[5mC]*eT*eG*e[5mC]*eT*eG) [compound 771387] | 8% | 13% | 28% | 70% | 10 µM | 6% |  | % Inhibition of SMAD7 mRNA [2, 4]: 59%
6 | 771390 (antisense e[5mC]*eG*eG*e[5mC]*eT*dG*d[5mC]*d[5mC]*d[5mC]*d[5mC]*dA*d[5mC]*d[5mC]*d[5mC]*d[5mC]*eG*e[5mC]*eG*e[5mC]*eG) [compound 771390] | 0% | 12% | 26% | 51% | > 20 µM |  | 66% | % inhibition of SMAD7 mRNA expression [2, 6]: 32%
7 | 771397 (antisense eG*eA*eG*e[5mC]*eG*dG*d[5mC]*dG*dG*d[5mC]*dG*dG*d[5mC]*d[5mC]*d[5mC]*eG*eA*eG*eG*eG) [compound 771397] | 0% | 0% | 41% | 51% | 15 µM | 55% |  | 
8 | 771399 (antisense eG*e[5mC]*e[5mC]*e[5mC]*eG*dG*dG*d[5mC]*dA*dG*dG*dA*dG*d[5mC]*dG*eG*e[5mC]*eG*eG*e[5mC]) [compound 771399] | 0% | 6% | 26% | 53% | > 20 µM |  | 33% | 
9 | 771403 (antisense eG*eA*eA*e[5mC]*eA*dT*dG*dA*d[5mC]*d[5mC]*dT*d[5mC]*d[5mC]*dG*d[5mC]*eA*e[5mC]*eA*e[5mC]*e[5mC]) [compound 771403] | 5% | 4% | 25% | 35% | > 20 µM | 62% |  | 
10 | 771407 (antisense eA*eG*eG*eA*eG*d[5mC]*dG*dA*dA*d[5mC]*dA*dT*dG*dA*d[5mC]*e[5mC]*eT*e[5mC]*e[5mC]*eG) [compound 771407] | 17% | 0% | 30% | 46% | > 20 µM |  | 59% | 
11 | 771414 (eT*e[5mC]*eG*eG*e[5mC]*dT*dG*dT*d[5mC]*d[5mC]*dG*dT*d[5mC]*dG*d[5mC]*e[5mC]*e[5mC]*e[5mC]*eT*eT; antisense) [compound 771414] | 0% | 2% | 43% | 33% | > 20 µM |  |  | % inhibition of SMAD7 mRNA expression [2, 7]: 65%
12 | 771416 (e[5mC]*e[5mC]*e[5mC]*e[5mC]*eA*dT*dG*d[5mC]*dG*d[5mC]*dT*d[5mC]*dG*dG*d[5mC]*eT*eG*eT*e[5mC]*e[5mC]; antisense) [compound 771416] | 0% | 3% | 19% | 35% | > 20 µM |  | 58% | 
13 | 771934 (antisense e[5mC]*eT*eG*eG*eA*dA*dA*dG*dG*dA*dA*dG*dA*d[5mC]*dT*e[5mC]*eG*eA*eG*eG) [compound 771934] |  |  |  |  |  |  | 15% | 
14 | 771935 (antisense eG*eG*eA*eA*eG*dG*dA*d[5mC]*dA*d[5mC]*dA*dT*dT*dG*dG*e[5mC]*eA*eT*e[5mC]*eA) [compound 771935] |  |  |  |  |  |  | 23% | 
15 | 771936 (antisense eT*eG*eT*eT*eT*d[5mC]*dT*dG*dT*dG*dT*dG*d[5mC]*dA*d[5mC]*eA*eT*eA*e[5mC]*eG) [compound 771936] |  |  |  |  |  | 36% |  | % Inhibition of SMAD7 mRNA [2, 4]: 32%
16 | 771938 (antisense e[5mC]*e[5mC]*eT*eT*e[5mC]*d[5mC]*d[5mC]*dA*dA*dA*dT*dG*d[5mC]*d[5mC]*dT*eG*e[5mC]*e[5mC]*e[5mC]*e[5mC]) [compound 771938] |  |  |  |  |  | 29% |  | 
17 | 771940 (antisense eT*e[5mC]*e[5mC]*eT*eG*d[5mC]*dT*dG*d[5mC]*d[5mC]*d[5mC]*d[5mC]*dA*dG*d[5mC]*eA*eG*eG*e[5mC]*eT) [compound 771940] |  |  |  |  |  |  | 0% | 
18 | 771941 (antisense eT*e[5mC]*eA*eA*eT*dG*dA*dT*dG*dA*dT*dG*dG*dG*dT*eT*eG*e[5mC]*eA*e[5mC]) [compound 771941] |  |  |  |  |  |  |  | % inhibition of SMAD7 mRNA expression [2, 7]: 40%
19 | 771942 (antisense eG*eT*e[5mC]*eG*eG*dT*d[5mC]*dA*dG*dG*dG*d[5mC]*d[5mC]*dT*dT*eG*e[5mC]*e[5mC]*e[5mC]*eT) [compound 771942] |  |  |  |  |  |  | 11% | 
20 | 771943 (antisense eG*eT*eA*eT*eT*dT*dG*dT*dT*dA*dA*d[5mC]*dA*dA*dA*eA*eA*eT*eG*eG) [compound 771943] |  |  |  |  |  |  | 0% | 
21 | 771945 (antisense eT*eT*eA*eT*eG*dT*dG*dT*d[5mC]*dT*d[5mC]*dA*dA*dA*dT*eA*eG*eA*eT*eG) [compound 771945] |  |  |  |  |  | 0% |  | 
22 | 771946 (antisense eG*eG*eG*e[5mC]*eT*dA*d[5mC]*d[5mC]*dT*dT*dA*dA*d[5mC]*dA*dA*eA*eG*e[5mC]*eT*eT) [compound 771946] |  |  |  |  |  | 47% |  | 
23 | 771948 (antisense e[5mC]*eA*e[5mC]*e[5mC]*e[5mC]*dA*dG*d[5mC]*dT*d[5mC]*dT*d[5mC]*dA*dA*dA*eT*e[5mC]*eA*eG*eT) [compound 771948] |  |  |  |  |  |  | 0% | 
24 | 771949 (antisense eA*eG*eA*eT*e[5mC]*dT*dT*dT*d[5mC]*dA*dA*d[5mC]*dT*dG*dG*eA*eT*eG*eG*eA) [compound 771949] |  |  |  |  |  |  |  | % inhibition of SMAD7 mRNA expression [2, 7]: 26%
25 | 771950 (antisense eA*eT*eG*e[5mC]*eA*dA*dA*dG*dG*dG*dA*d[5mC]*d[5mC]*d[5mC]*dT*eT*eA*eA*eT*eA) [compound 771950] |  |  |  |  |  |  | 0% | 
26 | 771951 (antisense e[5mC]*eT*eG*e[5mC]*eA*dG*dA*dG*d[5mC]*dA*d[5mC]*dA*dG*dA*dT*eG*e[5mC]*eA*eA*eA) [compound 771951] |  |  |  |  |  |  | 9% | 
27 | 771952 (antisense eT*e[5mC]*eT*eT*e[5mC]*dT*d[5mC]*dT*dG*d[5mC]*dA*dG*dA*dG*d[5mC]*eA*e[5mC]*eA*eG*eA) [compound 771952] |  |  |  |  |  | 0% |  | % Inhibition of SMAD7 mRNA [2, 4]: 26%
28 | 771953 (antisense eT*e[5mC]*eA*e[5mC]*e[5mC]*dA*dG*d[5mC]*dT*d[5mC]*dA*dT*d[5mC]*dT*d[5mC]*eT*e[5mC]*eA*eG*eG) [compound 771953] |  |  |  |  |  | 42% |  | 
29 | 771954 (antisense e[5mC]*eT*eA*eG*eA*dA*dT*dG*dA*dA*dG*dA*d[5mC]*dA*d[5mC]*e[5mC]*e[5mC]*eG*e[5mC]*e[5mC]) [compound 771954] |  |  |  |  |  | 0% |  | 
